One test has as its target T1, SapC (saposin C) (Homo sapiens, UniProt P07602).
T1 sequence (P07602 311-390 limits assumed): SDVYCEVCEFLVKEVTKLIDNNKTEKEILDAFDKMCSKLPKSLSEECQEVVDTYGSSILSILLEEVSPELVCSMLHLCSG
Put plainly: microscale thermophoresis. Type of test: binding.

The target of test [1] is T2, acid β-glucosidase (GCase), Velaglucerase alfa (human, UniProt P04062 40-536, mannosyl-terminated oligosaccharide chains).
T2 sequence (looked up): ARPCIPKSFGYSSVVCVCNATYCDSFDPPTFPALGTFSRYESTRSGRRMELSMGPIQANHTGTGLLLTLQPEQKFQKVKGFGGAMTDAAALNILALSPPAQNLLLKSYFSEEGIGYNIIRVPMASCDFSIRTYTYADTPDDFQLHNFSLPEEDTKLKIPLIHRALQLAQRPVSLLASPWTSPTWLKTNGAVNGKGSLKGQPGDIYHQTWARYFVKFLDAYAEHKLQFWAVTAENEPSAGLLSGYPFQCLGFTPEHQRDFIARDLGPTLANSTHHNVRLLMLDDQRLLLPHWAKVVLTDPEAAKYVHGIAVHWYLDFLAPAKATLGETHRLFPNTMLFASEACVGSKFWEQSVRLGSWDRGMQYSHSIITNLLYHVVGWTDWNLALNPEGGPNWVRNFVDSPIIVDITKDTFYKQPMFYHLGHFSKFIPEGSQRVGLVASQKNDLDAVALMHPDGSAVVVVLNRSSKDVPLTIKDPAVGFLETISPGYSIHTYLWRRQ
As to the kind of experiment: MST.

Take `CCCCCCCC/C=C\CCCCCCCC(=O)OC[C@H](COP(=O)(O)OC[C@H](N)C(=O)O)OC(=O)CCCCCCC/C=C\CCCCCCCC` [DOPS]: the Kd at SapC (saposin C) amounted to 13.5 ± 1.65 nM.

B1: saposin C (SapC) (natural protein, UniProt P07602 311-390, looked up)
chain: T1 sequence (P07602 311-390 limits assumed)
The molecule B1 registered a Kd in test [1] of 29.4 ± 1.91 nM.

Values taken from paper PMC7251241 (EBioMedicine, 2020).
